Results taken from patent publication US7704995B2 (Exelixis, Inc., priority 2003, dated 2010).

Molecular target: T1, Chk1 (Homo sapiens, UniProt O14757)
T1 construct: purchased Upstate Biotechnology
T1 sequence (O14757 1-476): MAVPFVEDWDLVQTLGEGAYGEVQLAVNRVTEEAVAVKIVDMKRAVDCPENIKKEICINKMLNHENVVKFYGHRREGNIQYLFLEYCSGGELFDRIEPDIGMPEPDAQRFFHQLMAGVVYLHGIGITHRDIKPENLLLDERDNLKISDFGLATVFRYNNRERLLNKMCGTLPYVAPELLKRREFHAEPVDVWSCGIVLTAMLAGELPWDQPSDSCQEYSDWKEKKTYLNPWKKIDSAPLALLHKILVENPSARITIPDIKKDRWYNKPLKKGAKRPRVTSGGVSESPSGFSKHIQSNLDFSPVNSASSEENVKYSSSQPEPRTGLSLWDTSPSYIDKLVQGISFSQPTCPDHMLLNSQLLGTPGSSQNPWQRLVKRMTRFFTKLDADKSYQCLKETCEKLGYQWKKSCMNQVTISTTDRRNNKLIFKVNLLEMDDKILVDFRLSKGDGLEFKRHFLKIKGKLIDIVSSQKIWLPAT
Assay: Chk1 kinase assay: incorporation of γ-33P ATP into immobilized myelin basic protein
Assay type: biochemical
Conditions: read-out: Chk1 IC50
Experimental: Chk1 and Chk2 assays were performed by measuring incorporation of γ-^33P ATP into immobilized myelin basic protein (MBP). High binding white 384 well plates (Greiner) were coated with MBP (Sigma #M-1891) by incubation of 60 ul/well of 20 μg/ml MBP in Tris-buffered saline (TBS; 50 mM Tris pH 8.0, 138 mM NaCl, 2.7 mM KCl) for 24 hours at 4° C. Plates were washed 3× with 100 μl TBS. Kinase reactions were carried out in a total volume of 34 μl in kinase buffer (5 mM Hepes pH 7.6, 15 mM NaCl, 0.01% bovine gamma globulin (Sigma #I-5506), 10 mM MgCl2, 1 mM DTT, 0.02% TritonX-100). Compound dilutions were performed in DMSO and added to assay wells to a final DMSO concentration of 1%. Each data point was measured in duplicate, and at least two duplicate assays were performed for each individual compound determination. Chk1 and Chk2 enzymes (Upstate Biotechnology) were added to final concentrations of 10 nM (Chk1) or 20 nM (Chk2). A mixture of unlabeled ATP and γ-^33P ATP was added to start the reaction (2×10^6 cpm of γ-^33P ATP per well (3000 Ci/mmole) and either 10 μM or 30 μM unlabeled ATP (for Chk1 and Chk2 assays respectively). The reaction was carried out for 1 hour at room temperature with shaking. Plates were washed 7× with TBS, followed by the addition of 50 μl/well scintillation fluid (Wallac). Plates were read using a Wallac Trilux counter. This is only one format of such assays, various other formats are possible, as known to those skilled in the art.
The above assay procedure can be used to determine the IC50 for inhibition and/or the inhibition constant Ki. The IC50 is defined as the concentration of compound required to reduce the enzyme activity by 50% under the conditions of the assay. […] The Ki for a compound may be determined from the IC50 based on three assumptions. First, only one compound molecule binds to the enzyme and there is no cooperativity. […] Third, the enzymatic rate of the enzyme-inhibitor complex is zero. The rate (i.e., compound concentration) data are fitted to the equation: […]

Question: With `Nc1ncc(-c2ccccc2)nc1C(=O)N[C@H]1CCc2ccccc21` [Example 5, 3-amino-N-[(1S)-2,3-dihydro-1H-inden-1-yl]-6-phenylpyrazine-2-carboxamide] as the compound, how does the IC50 read?
Answer: ≥ 10 µM

Question: With `Nc1ncc(-c2ccccc2)nc1C(=O)NC1CCCCC1` [Example 14, 3-amino-N-cyclohexyl-6-phenylpyrazine-2-carboxamide] as the compound, how does the IC50 read?
Answer: ≥ 10 µM

Question: With `COc1ccccc1-c1cnc(N)c(C(N)=O)n1` [Example 17, 3-amino-6-[2-(methyloxy)phenyl]pyrazine-2-carboxamide] as the compound, how does the IC50 read?
Answer: ≥ 10 µM

Question: How did the IC50 turn out when `NC(=O)c1nc(-c2ccc(F)cc2F)cnc1N` [Example 18, 3-amino-6-(2,4-difluorophenyl)pyrazine-2-carboxamide] was run?
Answer: ≥ 10 µM

Question: `NC(=O)c1nc(-c2cccc(F)c2)cnc1N` [Example 19, 3-amino-6-(3-fluorophenyl)pyrazine-2-carboxamide] was tested. Which IC50 did it give?
Answer: ≥ 10 µM

Question: For `NC(=O)c1nc(-c2ccc3ccccc3c2)cnc1N` [Example 27, 3-amino-6-naphthalen-2-ylpyrazine-2-carboxamide], which IC50 is on record?
Answer: ≥ 10 µM

Question: How did the IC50 turn out when `CNC(=O)c1cc(-c2cccc(CO)c2)cnc1N` [Example 35] was run?
Answer: 0.05 to 1 µM

Question: For `NC(=O)c1nc(-c2ccccc2)cnc1NCc1ccccc1` [Example 39, 6-phenyl-3-[(phenylmethyl)amino]pyrazine-2-carboxamide], which IC50 is on record?
Answer: ≥ 10 µM

Question: With `CCCNc1ncc(-c2ccccc2)nc1C(N)=O` [Example 40, 6-phenyl-3-(propylamino)pyrazine-2-carboxamide] as the compound, how does the IC50 read?
Answer: ≥ 10 µM

Question: Which IC50 does the source give for `CNC(=O)c1nc(-c2cccc(N)c2)cnc1N` [Example 51, 3-amino-6-(3-aminophenyl)-N-methylpyrazine-2-carboxamide] here?
Answer: 0.05 to 1 µM

Question: How did the IC50 turn out when `CNC(=O)c1nc(-c2cccc(CO)c2)cnc1N` [Example 57, 3-amino-6-[3-(hydroxymethyl)phenyl]-N-methylpyrazine-2-carboxamide] was run?
Answer: 0.05 to 1 µM

Question: Which IC50 does the source give for `CNC(=O)c1nc(-c2ccc(CO)cc2)cnc1N` [Example 58, 3-amino-6-[4-(hydroxymethyl)phenyl]-N-methylpyrazine-2-carboxamide] here?
Answer: 1 to 10 µM

Question: With `C/N=C(\C)c1cccc(-c2cnc(N)c(C(=O)NC)n2)c1` [Example 59, 3-amino-N-methyl-6-{3-[(1E)-N-methylethanimidoyl]phenyl}pyrazine-2-carboxamide] as the compound, how does the IC50 read?
Answer: 1 to 10 µM

Question: How did the IC50 turn out when `CNC(=O)c1nc(-c2cccc(OC)c2)cnc1N` [Example 60, 3-amino-N-methyl-6-[3-(methyloxy)phenyl]pyrazine-2-carboxamide] was run?
Answer: 1 to 10 µM

Question: `CNC(=O)c1nc(-c2ccc(NC(C)=O)cc2)cnc1N` [Example 63, 6-[4-(acetylamino)phenyl]-3-amino-N-methylpyrazine-2-carboxamide] was tested. Which IC50 did it give?
Answer: 1 to 10 µM

Question: With `CNC(=O)c1nc(-c2noc(C3CCCC3)n2)cnc1N` [Example 67, 3-amino-6-(5-cyclopentyl-1,2,4-oxadiazol-3-yl)-N-methylpyrazine-2-carboxamide] as the compound, how does the IC50 read?
Answer: ≥ 10 µM

Question: How did the IC50 turn out when `CNC(=O)c1nc(-c2noc(-c3ccccc3)n2)cnc1N` [Example 69, 3-amino-N-methyl-6-(5-phenyl-1,2,4-oxadiazol-3-yl)pyrazine-2-carboxamide] was run?
Answer: ≥ 10 µM

Question: For `CNC(=O)c1nc(-c2noc(Cc3ccccc3)n2)cnc1N` [Example 70, 3-amino-N-methyl-6-[5-(phenylmethyl)-1,2,4-oxadiazol-3-yl]pyrazine-2-carboxamide], which IC50 is on record?
Answer: ≥ 10 µM

Question: Which IC50 does the source give for `CNC(=O)c1nc(-c2noc(CCc3ccccc3)n2)cnc1N` [Example 72, 3-amino-N-methyl-6-[5-(2-phenylethyl)-1,2,4-oxadiazol-3-yl]pyrazine-2-carboxamide] here?
Answer: ≥ 10 µM

Question: For `CNC(=O)c1nc(-c2noc(C(C)(C)C)n2)cnc1N` [Example 74, 3-amino-6-[5-(1,1-dimethylethyl)-1,2,4-oxadiazol-3-yl]-N-methylpyrazine-2-carboxamide], which IC50 is on record?
Answer: ≥ 10 µM

Question: How did the IC50 turn out when `CNC(=O)c1nc(-c2noc(-c3ccco3)n2)cnc1N` [Example 75, 3-amino-6-(5-furan-2-yl-1,2,4-oxadiazol-3-yl)-N-methylpyrazine-2-carboxamide] was run?
Answer: ≥ 10 µM

Question: With `CNC(=O)c1nc(-c2ccc(N(C)C)cc2)cnc1N` [Example 76, 3-amino-6-[4-(dimethylamino)phenyl]-N-methylpyrazine-2-carboxamide] as the compound, how does the IC50 read?
Answer: 1 to 10 µM

Question: For `CNC(=O)c1nc(-c2ccc(NS(C)(=O)=O)cc2)cnc1N` [Example 77, 3-amino-N-methyl-6-{4-[(methylsulfonyl)amino]phenyl}pyrazine-2-carboxamide], which IC50 is on record?
Answer: 1 to 10 µM

Question: Which IC50 does the source give for `CNC(=O)c1nc(-c2cc(C)cc(C)c2)cnc1N` [Example 78, 3-amino-6-(3,5-dimethylphenyl)-N-methylpyrazine-2-carboxamide] here?
Answer: 1 to 10 µM

Question: Which IC50 does the source give for `CNC(=O)c1nc(-c2ccc(C(C)=O)cc2)cnc1N` [Example 79, 6-(4-acetylphenyl)-3-amino-N-methylpyrazine-2-carboxamide] here?
Answer: 1 to 10 µM

Question: Which IC50 does the source give for `CNC(=O)c1nc(-c2ccc(OC)c(OC)c2)cnc1N` [Example 80, 3-amino-6-[3,4-bis(methyloxy)phenyl]-N-methylpyrazine-2-carboxamide] here?
Answer: 1 to 10 µM

Question: Which IC50 does the source give for `CNC(=O)c1nc(-c2cccc(NC(=O)c3ccccc3)c2)cnc1N` [Example 81, 3-amino-N-methyl-6-{3-[(phenylcarbonyl)amino]phenyl}pyrazine-2-carboxamide] here?
Answer: 0.05 to 1 µM

Question: How did the IC50 turn out when `CNC(=O)c1nc(-c2cccc(NS(C)(=O)=O)c2)cnc1N` [Example 82, 3-amino-N-methyl-6-{3-[(methylsulfonyl)amino]phenyl}pyrazine-2-carboxamide] was run?
Answer: 1 to 10 µM

Question: Which IC50 does the source give for `CNC(=O)c1nc(-c2cccc(-c3nnn[nH]3)c2)cnc1N` [Example 83, 3-amino-N-methyl-6-[3-(1H-tetrazol-5-yl)phenyl]pyrazine-2-carboxamide] here?
Answer: 1 to 10 µM

Question: Which IC50 does the source give for `CNC(=O)c1nc(-c2cccc(C(=O)NCc3ccccc3)c2)cnc1N` [Example 84, 3-amino-N-methyl-6-(3-{[(phenylmethyl)amino]carbonyl}phenyl)pyrazine-2-carboxamide] here?
Answer: 0.05 to 1 µM

Question: For `CNC(=O)c1nc(-c2cccc(C(N)=O)c2)cnc1N` [Example 85, 3-amino-6-[3-(aminocarbonyl)phenyl]-N-methylpyrazine-2-carboxamide], which IC50 is on record?
Answer: 1 to 10 µM

Question: With `CNC(=O)c1nc(-c2cccc(C(=O)N(C)C)c2)cnc1N` [Example 86, 3-amino-6-{3-[(dimethylamino)carbonyl]phenyl}-N-methylpyrazine-2-carboxamide] as the compound, how does the IC50 read?
Answer: 1 to 10 µM

Question: How did the IC50 turn out when `CNC(=O)c1nc(-c2ccc(S(C)(=O)=O)cc2)cnc1N` [Example 87, 3-amino-N-methyl-6-[4-(methylsulfonyl)phenyl]pyrazine-2-carboxamide] was run?
Answer: 1 to 10 µM

Question: For `CCNC(=O)c1nc(-c2cccc(N)c2)cnc1N` [Example 88, 3-amino-6-(3-aminophenyl)-N-ethylpyrazine-2-carboxamide], which IC50 is on record?
Answer: 1 to 10 µM

Question: With `CNC(=O)c1nc(-c2cccc(NC(=O)Nc3ccc(F)cc3)c2)cnc1N` [Example 89, 3-amino-6-[3-({[(4-fluorophenyl)amino]carbonyl}amino)phenyl]-N-methylpyrazine-2-carboxamide] as the compound, how does the IC50 read?
Answer: 0.05 to 1 µM

Question: How did the IC50 turn out when `CNC(=O)c1nc(-c2cccc(NC(=O)Nc3ccc(OC)cc3)c2)cnc1N` [Example 90, 3-amino-N-methyl-6-{3-[({[4-(methyloxy)phenyl]amino}carbonyl)amino]phenyl}pyrazine-2-carboxamide] was run?
Answer: 0.05 to 1 µM

Question: Which IC50 does the source give for `CNC(=O)c1nc(-c2cccc(NC(=O)Nc3cccc(-c4cnc(N)c(C(=O)NC)n4)c3)c2)cnc1N` [Example 91, 6,6′-[(oxomethanediyl)bis(iminobenzene-3,1-diyl)]bis(3-amino-N-methylpyrazine-2-carboxamide)] here?
Answer: < 0.05 µM

Question: `CNC(=O)c1nc(-c2cccc(C(=O)O)c2)cnc1N` [Example 92, 3-{5-amino-6-[(methylamino)carbonyl]pyrazin-2-yl}benzoic acid] was tested. Which IC50 did it give?
Answer: ≥ 10 µM

Question: Which IC50 does the source give for `CNC(=O)c1nc(-c2cccc(C(=O)N3CCN(C)CC3)c2)cnc1N` [Example 93, 3-amino-N-methyl-6-{3-[(4-methylpiperazin-1-yl)carbonyl]phenyl}pyrazine-2-carboxamide] here?
Answer: 1 to 10 µM
